Measured values reported in ChEMBL document CHEMBL4825667, “α-Glucosidase Inhibitors from Ageratina grandifolia” (J Nat Prod, 2021).
The source made the active and inactive calls. No cut-off for these calls is given here.

Key:
[1] = Inhibition of yeast Alpha-glucosidase using p-nitro phenyl-alpha-D-glucopyranoside as a substrate measured after 20 mins by spectrophotocolorimetric analysis; design: species or system Saccharomyces cerevisiae
Homo sapiens [2] = species on record: Homo sapiens; test: Inhibition of Type-2 alpha glucosidase (unknown origin)
Homo sapiens [3] = species on record: Homo sapiens; test: Inhibition of Type-1 alpha glucosidase (unknown origin)
Saccharomyces cerevisiae [4] = test: Mixed type inhibition of yeast Alpha- glucosidase assessed as increase in Km using varying levels of p-NPG as substrate measured after 20 mins by reciprocal Lineweaver-Burk plot analysis
Saccharomyces cerevisiae [5] = test: Mixed type inhibition of yeast Alpha- glucosidase assessed as decrease in Vmax using varying levels of p-NPG as substrate measured after 20 mins by reciprocal Lineweaver-Burk plot analysis

IC50 [1] | SMILES | further results
404 µM | COc1cc2c(cc1C(C)OC)C=CC(C)(C)O2 (stereo not drawn) | –
672 µM | COc1cc2c(cc1C(C)O)C=CC(C)(C)O2 (stereo not drawn) | –
440 µM | COc1cc2c(cc1C(C)=O)C=CC(C)(C)O2 [ENCECALIN] | –
460 µM | CC(=O)c1ccc2c(c1)C=CC(C)(C)O2 | –

Second part, the compound before the results:

SMILES | IC50 [1] | further results
C/C=C(/C)C(=O)O[C@@H](c1cc(C(C)=O)ccc1O)[C@H]1OC1(C)C | 288 µM | –
C[C@H]1O[C@H](O[C@H]2[C@H](O)[C@@H](O)[C@@H](O[C@H]3[C@H](O)[C@@H](O)C(O)O[C@@H]3CO)O[C@@H]2CO)[C@H](O)[C@@H](O)[C@@H]1N[C@H]1C=C(CO)[C@@H](O)[C@H](O)[C@H]1O (stereo partly drawn) [ACARBOSE] | 279 µM | inhibition (Homo sapiens [2]): Active; inhibition (Homo sapiens [3]): Active
O=c1c(O)c(-c2ccc(O)c(O)c2)oc2cc(O[C@@H]3O[C@H](CO)[C@@H](O)[C@H](O)[C@H]3O)c(O)c(O)c12 | 402 µM | –
O=C(/C=C/c1ccc(O)c(O)c1)OC[C@H]1O[C@@H](Oc2cc3oc(-c4ccc(O)c(O)c4)c(O)c(=O)c3c(O)c2O)[C@H](O)[C@@H](O)[C@@H]1O | 0.79 µM | Km (Saccharomyces cerevisiae [4]): 610 µM; Vmax (Saccharomyces cerevisiae [5]): 1.42 mM/min
O=C(/C=C/c1ccc(O)c(O)c1)OC[C@H]1O[C@@H](Oc2cc3oc(-c4ccc(O)cc4)c(O)c(=O)c3c(O)c2O)[C@H](O)[C@@H](O)[C@@H]1O | 6.94 µM | –
